Laboratory results published in patent US20070041934A1, “Dendrimer based compositions and methods of using the same” (priority 2005, published 2007).

Key:
KB cells = experiment: Cell growth inhibition (XTT assay / total cell protein); type: cell-based, human
Method: Cell culture and treatment. KB cells were maintained in folate-free medium containing 10% serum (See, e.g., Quintana et al, Pharm. Res. 19, 1310 (2002)) to provide extracellular FA similar to that found in human serum. Cells were plated in 12-well plates for uptake studies, in 24-well plates for cell growth analysis, and in 96-well plates for XTT assay. Cells were rinsed with FA-free medium containing dialyzed serum and incubated at 37° C. with dendrimer-drug conjugates for the indicated time periods and concentrations. KB cells were also maintained in RPMI medium containing 2 μM FA to obtain cells which express low FAR.
Evaluation of dendrimer cytotoxicity. Cell growth was determined by assay of the total protein in lysates of treated cells using a bicinchoninic acid reagent (PIERCE, and by XTT assay, using a kit from Roche.
Because the binding of the conjugate to KB cells reaches maximal uptake within 1 h (Quintana et al, 2002. Pharmaceutical Research 19: 1310-1316.), the effect of the G5-FI-FA-MTX on cell growth was initially tested by pre-incubation of cells with the conjugate for 1 h, followed by incubation in a drug-free medium for 5 d. […] When the cells were pre-incubated with dendrimers for 4 h, there was a modest decrease of about 10% in cell growth as determined by XTT assay. The cytotoxicity measurements were therefore done by incubation with the dendrimer for a minimum of 24 h, a pre-incubation time period shown to induce significant cytotoxicity.
Time course and dose dependent inhibition of cell growth. Previous studies have shown that MTX-induced cytotoxicity is detectable in vitro only if the medium is completely deprived of FA (See, e.g., Sobrero & Bertino, Int. J. Cell Cloning 4, 51 (1986)). The effect of the trifunctional dendrimers on cell growth was tested in cells incubated in a FA-deficient medium. Cells were treated with 300 nM conjugates (equivalent of 1500 nM MTX) or 1500 nM free MTX for 1-4 days, and cell proliferation was determined by estimation of cellular protein content. Cells were treated for 2 days with different concentrations of the conjugates or free MTX (the conjugate concentration is given as MTX equivalents, with 5 MTX per dendrimer molecule). KB cells which express high and low FAR were incubated with 30 nM of the dendrimers for 1 hr at 37° C., rinsed, and the fluorescence of cells was determined by flow cytometric analysis (See. e.g., FIG. 21, left panel). Pre-incubation with 50 μM free FA for 30 min totally prevents cellular binding and uptake of the polymer conjugates (See. e.g., FIG. 21, left panel).
The inhibition of cell growth induced by the conjugates was also tested by XTT assay which is based on the conversion of XTT to formazan by the active mitochondria of live cells (See, e.g., Roehm et al, J Immunol Methods 142, 257 (1991)).
As growth inhibition induced by free MTX was higher than with the equimolar concentrations of MTX in the G5-FITC-FA-MTX below 1 μM (See, e.g., FIG. 21), it was tested whether the FA moiety in the G5-FITC-FA-MTX may be rescuing the cells from MTX-induced cytotoxicity. As the G5-FITC-FA-MTX preparation contained equimolar concentrations of MTX and FA, the effect of similar concentrations of free MTX and free FA on the inhibition of cell growth was determined. […] The cells were rinsed to remove the drugs and incubated with fresh medium for an additional 6 d, and total cell protein was determined. […]

s.c. human KB xenografts = experiment: Targeted drug delivery to tumor, tumor growth and survival; type: in vivo, SCID mice; details: for effect on tumor growth: first trial
Method: Delivery of targeted nanoparticle therapeutic.
Statistical methods. Means, SD, and SE of the data were calculated. Differences between the experimental groups and the control groups were tested using Student's-Newman-Keuls' test and Ps<0.05 were considered significant.
Targeted drug delivery to tumor cells through the folate receptor. The efficacy of different doses of conjugates was tested on SCID CB-17 mice bearing s.c. human KB xenografts and was compared with equivalent and higher doses of free methotrexate. Mice were maintained on the folic acid-deficient diet for 3 weeks before injection of the KB tumor cells to achieve circulating levels of folic acid that approach those in human serum and to prevent down-regulation of folate receptors on tumor xenografts (See, Mathias et al., J Nucl Med 29, 1579 (1998)). Six groups of SCID mice with five mice in each group were injected s.c. on one flank with 5×10^6 KB cells in 0.2 mL PBS suspension. The highest total dose of G5-FI-FA-MTX therapeutic used equals 55.0 mg/kg and is equivalent to a 5.0 mg/kg total cumulative dose of free methotrexate (FIG. 29). The therapeutic dose of the conjugate was compared with three cumulative doses of free methotrexate equivalent to 33.3, 21.7, and 5.0 mg/kg accumulated in 10 to 15 injections based on mouse survival. Saline and the conjugate without methotrexate (G5-FI-FA) were used as controls.

[1] = mouse, in vivo
Method: (§1) Delivery of targeted nanoparticle therapeutic. Twice weekly, SCID mice with s.c. KB xenografts, starting on day 4 after tumor implantation, received via the tail vein an injection of either targeted or nontargeted conjugate containing methotrexate, a conjugate without methotrexate, free methotrexate, or saline as a control. The compounds were delivered in a 0.2 mL volume of saline per 20 g of mouse. The single dose of methotrexate delivered each time equaled 0.33 mg/kg. The higher doses of 1.67 and 3.33 mg/kg free methotrexate were also tested. The conjugates were delivered at equimolar concentration of methotrexate calculated based on the number of methotrexate molecules present in a nanoparticle. The conjugate without methotrexate was delivered at equimolar concentration of dendrimer. In the initial trial, six groups of mice with five mice in each group received up to 15 injections. In the follow-up trial, mice received up to 28 injections dependent on their survival. The body weights of the mice were monitored throughout the experiment as an indication of adverse effects of the drug. Histopathology of multiple organs was done at the termination of each trial and each time mouse had to be euthanized due to toxic effects or tumor burden. Tissues from lung, heart, liver, pancreas, spleen, kidney, and tumor were analyzed.
Toxicity of dendrimer conjugates. […]

[2] = Toxicity of dendrimer conjugates and free methotrexate in mice; details: cumulative doses 33.3 and 21.7 mg/kg
Method: as §1
Toxicity of dendrimer conjugates. […]

Row | SMILES | reversal of MTX-induced growth-arrest by free FA (KB cells; 150 nM FA with 150 nM MTX, 24 h, then 6 d fresh medium, total cell protein) | increase of cell growth above that of the control cells (KB cells; 50 μM free FA with conjugate or free MTX 24 h, then 5 days, XTT) | growth inhibition by XTT assay (KB cells; 1, 2 or 3 days) | inhibition of cell growth (KB cells; FA-deficient medium, time course and dose dependence (FIGS. 21 and 22)) | growth inhibition compared with equimolar MTX in G5-FITC-FA-MTX (KB cells; below 1 μM) | effect on tumor growth (s.c. human KB xenografts; cumulative dose equivalent to 5.0 mg/kg methotrexate (or equimolar dendrimer)) | effect on tumor growth (s.c. human KB xenografts; cumulative doses 33.3 and 21.7 mg/kg) | day of trial by which all mice died (s.c. human KB xenografts; second 99-day trial) | survivors at the termination of the trial (s.c. human KB xenografts; second 99-day trial) | histopathology of the liver [1] | day of trial by which dose became lethal [2]
1 | Nc1nc2ncc(CNc3ccc(C(=O)N[C@@H](CCC(=O)O)C(=O)O)cc3)nc2c(=O)[nH]1 [FA, folic acid] | almost completely reversed the growth-arrest | 20% | – | – | – | – | – | – | – | – | –
2 | CN(Cc1cnc2nc(N)nc(N)c2n1)c1ccc(C(=O)N[C@@H](CCC(=O)O)C(=O)O)cc1 [MTX, methotrexate] | – | – | time-dependent cytotoxicity | inhibited cell growth in a time- and dose-dependent fashion | higher | no effect on tumor growth | affecting tumor growth | ≤ 66 days | no mice surviving | advanced liver lesions, collections of inflammatory cells, and periportal inflammation | 32 to 36 days
